Measurements taken from paper PMC5218480 (PLoS ONE, 2017).

Test system: MV-4-11 cells
Test: Gene expression microarray analysis (Affymetrix PrimeView) and GSEA
Assay type: cell-based, human
Set-up: RFU PODN (11730768_x_at) / Fold change /veh PODN (11730768_x_at) / RFU LINC00158 (11744669_a_at) / Fold change /veh LINC00158 (11744669_a_at) / RFU DUSP10 (11751237_a_at) / Fold change /veh DUSP10 (11751237_a_at) / RFU ID3 (11757404_x_at) / Fold change /veh ID3 (11757404_x_at) / RFU PLEKHG5 (11737974_s_at) / Fold change /veh PLEKHG5 (11737974_s_at) / RFU LRRC4B (11730491_at) / Fold change /veh LRRC4B (11730491_at) / RFU GIMAP4 (11747438_a_at) / Fold change /veh GIMAP4 (11747438_a_at) / RFU KRT8 (11758183_x_at) / Fold change /veh KRT8 (11758183_x_at) / RFU CNN1 (11734310_a_at) / Fold change /veh CNN1 (11734310_a_at) / RFU VPS37D (11726825_at) / Fold change /veh VPS37D (11726825_at) / RFU C10orf10 (11716522_x_at) / Fold change /veh C10orf10 (11716522_x_at) / RFU KIR2DL2 /// KIR2DL4 /// KIR2DL5A /// KIR2DL5B /// KIR2DS1 /// KIR2DS2 /// KIR2DS3 /// KIR2DS4 /// KIR3DL3 /// KIR3DL3 /// KIR3DS1 (11738374_at) / Fold change /veh KIR2DL2 /// KIR2DL4 /// KIR2DL5A /// KIR2DL5B /// KIR2DS1 /// KIR2DS2 /// KIR2DS3 /// KIR2DS4 /// KIR3DL3 /// KIR3DL3 /// KIR3DS1 (11738374_at) / RFU C1QL1 (11718748_at) / Fold change /veh C1QL1 (11718748_at) / RFU TMPRSS4 (11747572_a_at) / Fold change /veh TMPRSS4 (11747572_a_at) / RFU HAMP (11756126_x_at) / Fold change /veh HAMP (11756126_x_at) / RFU RNFT2 (11725882_a_at) / Fold change /veh RNFT2 (11725882_a_at) / RFU NR4A2 (11747474_a_at) / Fold change /veh NR4A2 (11747474_a_at) / RFU ABCC12 (11746883_a_at) / Fold change /veh ABCC12 (11746883_a_at) / RFU TMEM136 (11760407_x_at) / Fold change /veh TMEM136 (11760407_x_at) / RFU CLDN22 /// WWC2 (11732394_at) / Fold change /veh CLDN22 /// WWC2 (11732394_at) / RFU HLA-DPB1 (11760878_x_at) / Fold change /veh HLA-DPB1 (11760878_x_at) / RFU SPINT1 (11716480_a_at) / Fold change /veh SPINT1 (11716480_a_at) / RFU GAP43 (11754022_s_at) / Fold change /veh GAP43 (11754022_s_at) / RFU A4GNT (11735810_at) / Fold change /veh A4GNT (11735810_at) / RFU PRB3 (11715151_x_at) / Fold change /veh PRB3 (11715151_x_at) / RFU TUBB4B (11761932_at) / Fold change /veh TUBB4B (11761932_at) / RFU CAPN14 (11732068_a_at) / Fold change /veh CAPN14 (11732068_a_at) / RFU TMCC2 (11721928_a_at) / Fold change /veh TMCC2 (11721928_a_at) / RFU IRGQ (11745062_a_at) / Fold change /veh IRGQ (11745062_a_at) / RFU FAM174B (11720279_a_at) / Fold change /veh FAM174B (11720279_a_at) / RFU TMPRSS4 (11748680_a_at) / Fold change /veh TMPRSS4 (11748680_a_at) / RFU FAM212B (11763350_a_at) / Fold change /veh FAM212B (11763350_a_at) / RFU PLEKHG5 (11743358_a_at) / Fold change /veh PLEKHG5 (11743358_a_at) / RFU ZSCAN30 (11745921_a_at) / Fold change /veh ZSCAN30 (11745921_a_at) / RFU CMKLR1 (11741424_a_at) / Fold change /veh CMKLR1 (11741424_a_at) / RFU LOC101060620 /// MAPK8IP1 (11723275_at) / Fold change /veh LOC101060620 /// MAPK8IP1 (11723275_at) / RFU SPTSSB (11747773_x_at) / Fold change /veh SPTSSB (11747773_x_at) / RFU PRSS12 (11739890_at) / Fold change /veh PRSS12 (11739890_at) / RFU BIN1 (11741810_x_at) / Fold change /veh BIN1 (11741810_x_at) / RFU WNT11 (11732464_a_at) / Fold change /veh WNT11 (11732464_a_at) / RFU C10orf10 (11716521_a_at) / Fold change /veh C10orf10 (11716521_a_at) / RFU C5orf56 (11738089_at) / Fold change /veh C5orf56 (11738089_at) / RFU CYB561 (11721691_x_at) / Fold change /veh CYB561 (11721691_x_at) / RFU ANKRD19P (11752326_a_at) / Fold change /veh ANKRD19P (11752326_a_at) / RFU OR2T12 /// OR2T33 /// OR2T8 (11738714_s_at) / Fold change /veh OR2T12 /// OR2T33 /// OR2T8 (11738714_s_at) / RFU VCAN (11748164_a_at) / Fold change /veh VCAN (11748164_a_at) / RFU JSRP1 (11732532_at) / Fold change /veh JSRP1 (11732532_at) / RFU KRTAP10-11 (11738290_x_at) / Fold change /veh KRTAP10-11 (11738290_x_at) / RFU MYO3A (11730013_a_at) / Fold change /veh MYO3A (11730013_a_at) / RFU EBF3 (11725865_a_at) / Fold change /veh EBF3 (11725865_a_at) / RFU CAMK2N1 (11719241_x_at) / Fold change /veh CAMK2N1 (11719241_x_at) / RFU C5orf56 (11738088_a_at) / Fold change /veh C5orf56 (11738088_a_at) / RFU OLFML3 (11715873_a_at) / Fold change /veh OLFML3 (11715873_a_at) / RFU LOC100653217 /// NTM (11731650_a_at) / Fold change /veh LOC100653217 /// NTM (11731650_a_at) / RFU MAPK11 (11762145_a_at) / Fold change /veh MAPK11 (11762145_a_at) / RFU FIZ1 (11724087_x_at) / Fold change /veh FIZ1 (11724087_x_at) / RFU OASL (11726364_x_at) / Fold change /veh OASL (11726364_x_at) / RFU SOX15 (11748057_x_at) / Fold change /veh SOX15 (11748057_x_at) / RFU CD79A (11719716_a_at) / Fold change /veh CD79A (11719716_a_at) / RFU HIST1H1D (11736915_at) / Fold change /veh HIST1H1D (11736915_at) / RFU CASKIN2 (11723855_a_at) / Fold change /veh CASKIN2 (11723855_a_at) / RFU LOC730098 (11760151_x_at) / Fold change /veh LOC730098 (11760151_x_at) / RFU OR4N2 (11742367_at) / Fold change /veh OR4N2 (11742367_at) / RFU PRRT2 (11749266_a_at) / Fold change /veh PRRT2 (11749266_a_at) / RFU SNX32 (11753110_a_at) / Fold change /veh SNX32 (11753110_a_at) / RFU CDHR5 (11726645_a_at) / Fold change /veh CDHR5 (11726645_a_at) / RFU RCAN1 (11760418_a_at) / Fold change /veh RCAN1 (11760418_a_at) / RFU FAM167A (11723789_a_at) / Fold change /veh FAM167A (11723789_a_at) / RFU FAM26E (11764081_at) / Fold change /veh FAM26E (11764081_at) / RFU ISYNA1 (11749810_s_at) / Fold change /veh ISYNA1 (11749810_s_at) / RFU ACY1 (11761880_at) / Fold change /veh ACY1 (11761880_at) / RFU 11764098_at / Fold change /veh 11764098_at / RFU SAMD14 (11745864_x_at) / Fold change /veh SAMD14 (11745864_x_at) / RFU NPB (11741838_a_at) / Fold change /veh NPB (11741838_a_at) / RFU TMPRSS6 (11731388_a_at) / Fold change /veh TMPRSS6 (11731388_a_at) / RFU KRTAP10-2 (11738614_at) / Fold change /veh KRTAP10-2 (11738614_at) / RFU ARHGAP8 /// PRR5-ARHGAP8 (11727945_x_at) / Fold change /veh ARHGAP8 /// PRR5-ARHGAP8 (11727945_x_at) / RFU KRTAP5-7 /// NADSYN1 (11734609_at) / Fold change /veh KRTAP5-7 /// NADSYN1 (11734609_at) / RFU RASL12 (11751679_a_at) / Fold change /veh RASL12 (11751679_a_at) / RFU CDKN2B (11736163_a_at) / Fold change /veh CDKN2B (11736163_a_at) / RFU PRF1 (11729649_at) / Fold change /veh PRF1 (11729649_at) / RFU, ZNF638 /// ZNF638-IT1 / Fold change vs veh, ZNF638 /// ZNF638-IT1 / RFU, PANK3 / Fold change vs veh, PANK3 / RFU, SH3YL1 / Fold change vs veh, SH3YL1 / RFU, ZEB2 / Fold change vs veh, ZEB2 / RFU, NRIP1 / Fold change vs veh, NRIP1 / RFU, PTTG1IP / Fold change vs veh, PTTG1IP / RFU, CAPN2 / Fold change vs veh, CAPN2 / RFU, MED14 / Fold change vs veh, MED14 / RFU, SNORA58 / Fold change vs veh, SNORA58 / RFU, C1orf63 / Fold change vs veh, C1orf63 / RFU, LRRFIP1 / Fold change vs veh, LRRFIP1 / RFU, NDUFAF7 / Fold change vs veh, NDUFAF7 / RFU, SLC12A2 / Fold change vs veh, SLC12A2 / RFU, IBTK / Fold change vs veh, IBTK / RFU, ESF1 / Fold change vs veh, ESF1 / Fold change vs veh, TMEM50B / RFU, TAOK1 / Fold change vs veh, TAOK1 / RFU, ACBD3 / Fold change vs veh, ACBD3 / RFU, TMA16 / Fold change vs veh, TMA16 / RFU, RWDD3 / Fold change vs veh, RWDD3 / RFU, BCAT1 / Fold change vs veh, BCAT1 / RFU, EDEM3 / Fold change vs veh, EDEM3 / RFU, TMEM33 / Fold change vs veh, TMEM33 / RFU, WDR75 / Fold change vs veh, WDR75 / RFU, AHCTF1 / Fold change vs veh, AHCTF1 / RFU, TFRC / Fold change vs veh, TFRC / RFU, ZDHHC17 / Fold change vs veh, ZDHHC17 / RFU, NOM1 / Fold change vs veh, NOM1 / RFU, ARL8B / Fold change vs veh, ARL8B / RFU, ZBTB11 / Fold change vs veh, ZBTB11 / RFU, TAMM41 / Fold change vs veh, TAMM41 / RFU, KIAA1704 /// LOC100996395 / Fold change vs veh, KIAA1704 /// LOC100996395 / RFU, ING1 / Fold change vs veh, ING1 / RFU, TRMT61B / Fold change vs veh, TRMT61B / RFU, FUBP3 / Fold change vs veh, FUBP3 / RFU, TP53 / Fold change vs veh, TP53 / RFU, TNKS2 / Fold change vs veh, TNKS2 / RFU, ZFP14 / Fold change vs veh, ZFP14 / RFU, ACTR2 / Fold change vs veh, ACTR2 / RFU, PPP3R1 / Fold change vs veh, PPP3R1 / RFU, PIK3R1 / Fold change vs veh, PIK3R1 / RFU, HNRNPA1 / Fold change vs veh, HNRNPA1 / RFU, RNF170 / Fold change vs veh, RNF170 / RFU, ZNF28 / Fold change vs veh, ZNF28 / RFU, RNGTT / Fold change vs veh, RNGTT / RFU, OGT / Fold change vs veh, OGT / RFU, BRD1 / Fold change vs veh, BRD1 / RFU, MARS / Fold change vs veh, MARS / RFU, ZNF655 / Fold change vs veh, ZNF655 / RFU, FAHD1 / Fold change vs veh, FAHD1 / RFU, BDP1 / Fold change vs veh, BDP1 / RFU, LRRCC1 / Fold change vs veh, LRRCC1 / RFU, ARID1A / Fold change vs veh, ARID1A / RFU, ZNF146 / Fold change vs veh, ZNF146 / RFU, ZNF330 / Fold change vs veh, ZNF330 / RFU, GPN3 / Fold change vs veh, GPN3 / RFU, C9orf123 / Fold change vs veh, C9orf123 / RFU, N4BP2L2 / Fold change vs veh, N4BP2L2 / RFU, ARFIP1 / Fold change vs veh, ARFIP1 / RFU, FAM179B / Fold change vs veh, FAM179B / RFU, BCL10 / Fold change vs veh, BCL10 / RFU, UHRF1BP1L / Fold change vs veh, UHRF1BP1L / RFU, BET1 / Fold change vs veh, BET1 / RFU, CNOT2 / Fold change vs veh, CNOT2 / RFU, ZNF268 / Fold change vs veh, ZNF268 / Fold change vs veh, ZNF507 / RFU, DGCR2 / Fold change vs veh, DGCR2 / RFU, WDSUB1 / Fold change vs veh, WDSUB1 / Fold change vs veh, HSP90B1 /// MIR3652 / RFU, ADSS / Fold change vs veh, ADSS / RFU, GK / Fold change vs veh, GK / RFU, ZNF148 / Fold change vs veh, ZNF148 / RFU, TAF9 / Fold change vs veh, TAF9 / RFU, SLC1A5 / Fold change vs veh, SLC1A5 / RFU, SLMO2 / Fold change vs veh, SLMO2 / RFU, ABCC4 / Fold change vs veh, ABCC4 / RFU, LOC101060439 /// RAP1B / Fold change vs veh, LOC101060439 /// RAP1B / RFU, RFX7 / Fold change vs veh, RFX7 / RFU, GTPBP10 / Fold change vs veh, GTPBP10 / RFU, CNEP1R1 / Fold change vs veh, CNEP1R1 / RFU, BIVM-ERCC5 /// ERCC5 / Fold change vs veh, BIVM-ERCC5 /// ERCC5 / RFU, ILF3 / Fold change vs veh, ILF3 / RFU 11762660_at / Fold change /veh 11762660_at / RFU VCAN (11757783_s_at) / Fold change /veh VCAN (11757783_s_at) / RFU DDX43 (11728927_at) / Fold change /veh DDX43 (11728927_at) / RFU KRT8 (11758188_x_at) / Fold change /veh KRT8 (11758188_x_at) / RFU NKD1 (11759106_at) / Fold change /veh NKD1 (11759106_at) / RFU SRD5A1 (11742802_a_at) / Fold change /veh SRD5A1 (11742802_a_at) / RFU TPSAB1 /// TPSB2 (11721975_s_at) / Fold change /veh TPSAB1 /// TPSB2 (11721975_s_at) / RFU GSTM3 (11746129_a_at) / Fold change /veh GSTM3 (11746129_a_at) / RFU IL23R (11737362_x_at) / Fold change /veh IL23R (11737362_x_at) / RFU TMEM51 (11727254_a_at) / Fold change /veh TMEM51 (11727254_a_at) / RFU PIWIL2 (11732686_x_at) / Fold change /veh PIWIL2 (11732686_x_at) / RFU ORM1 (11744905_x_at) / Fold change /veh ORM1 (11744905_x_at) / RFU CCDC152 (11743942_at) / Fold change /veh CCDC152 (11743942_at) / RFU ECM1 (11717891_a_at) / Fold change /veh ECM1 (11717891_a_at) / RFU IL23R (11748794_a_at) / Fold change /veh IL23R (11748794_a_at) / RFU TNFAIP8L3 (11732012_x_at) / Fold change /veh TNFAIP8L3 (11732012_x_at) / RFU MBOAT4 (11741988_at) / Fold change /veh MBOAT4 (11741988_at) / RFU 11764193_at / Fold change /veh 11764193_at / RFU TMEM53 (11763286_at) / Fold change /veh TMEM53 (11763286_at) / RFU MAGEB2 (11727129_at) / Fold change /veh MAGEB2 (11727129_at) / RFU TMEM200A (11744735_a_at) / Fold change /veh TMEM200A (11744735_a_at) / RFU CCDC152 (11751479_a_at) / Fold change /veh CCDC152 (11751479_a_at) / RFU FAM211A (11726209_a_at) / Fold change /veh FAM211A (11726209_a_at) / RFU RGS16 (11746705_a_at) / Fold change /veh RGS16 (11746705_a_at) / RFU VCAN (11755009_s_at) / Fold change /veh VCAN (11755009_s_at) / RFU RHOB (11743442_s_at) / Fold change /veh RHOB (11743442_s_at) / RFU RGS16 (11720943_a_at) / Fold change /veh RGS16 (11720943_a_at) / RFU RGS16 (11720944_at) / Fold change /veh RGS16 (11720944_at) / RFU, VPS4B / Fold change vs veh, VPS4B / RFU, CREB1 / Fold change vs veh, CREB1 / RFU, DNAJC13 / Fold change vs veh, DNAJC13 / RFU, GNAQ / Fold change vs veh, GNAQ / RFU, CDK5R1 / Fold change vs veh, CDK5R1 / RFU, ZRANB3 / Fold change vs veh, ZRANB3 / RFU, CUL4A / Fold change vs veh, CUL4A / RFU, CCNY / Fold change vs veh, CCNY / RFU, UFL1 / Fold change vs veh, UFL1 / RFU, COG3 / Fold change vs veh, COG3 / RFU, DIAPH2 / Fold change vs veh, DIAPH2 / RFU, SKA2 / Fold change vs veh, SKA2 / RFU, AFF3 / Fold change vs veh, AFF3 / RFU, LMF1 / Fold change vs veh, LMF1 / RFU, IPO11 / Fold change vs veh, IPO11 / RFU, DFFB / Fold change vs veh, DFFB / RFU, FOXP1 / Fold change vs veh, FOXP1 / RFU, CARD8 / Fold change vs veh, CARD8 / RFU, STRN3 / Fold change vs veh, STRN3 / RFU, ADK / Fold change vs veh, ADK / RFU, RASSF2 / Fold change vs veh, RASSF2 / RFU, WIPF1 / Fold change vs veh, WIPF1 / RFU, LARP1B / Fold change vs veh, LARP1B / RFU, RASA1 / Fold change vs veh, RASA1 / RFU, RB1 / Fold change vs veh, RB1 / RFU, PPFIA1 / Fold change vs veh, PPFIA1 / RFU, MAT2A / Fold change vs veh, MAT2A / RFU, CCT5 / Fold change vs veh, CCT5 / RFU, WDR92 / Fold change vs veh, WDR92 / RFU, CUX1 / Fold change vs veh, CUX1 / RFU, TTC7A / Fold change vs veh, TTC7A / RFU, TMEM135 / Fold change vs veh, TMEM135 / RFU, DEPTOR / Fold change vs veh, DEPTOR / RFU, CPM / Fold change vs veh, CPM / RFU, DNAJB6 / Fold change vs veh, DNAJB6 / RFU, CACNA2D3 / Fold change vs veh, CACNA2D3 / RFU, DTX4 / Fold change vs veh, DTX4 / RFU, TFCP2 / Fold change vs veh, TFCP2 / RFU, GMCL1 /// GMCL1P1 / Fold change vs veh, GMCL1 /// GMCL1P1 / RFU, AEBP2 / Fold change vs veh, AEBP2 / RFU, SNHG1 /// SNORD22 /// SNORD25 /// SNORD26 /// SNORD27 /// SNORD28 /// SNORD29 /// SNORD31 / Fold change vs veh, SNHG1 /// SNORD22 /// SNORD25 /// SNORD26 /// SNORD27 /// SNORD28 /// SNORD29 /// SNORD31 / Fold change (Aza/veh), C12orf56 (ProbeSet 11735607_a_at) / Fold change (ACY-1035/veh), C12orf56 (ProbeSet 11735607_a_at) / Fold change (Aza/veh), FGFR1OP (ProbeSet 11751329_s_at) / Fold change (ACY-1035/veh), FGFR1OP (ProbeSet 11751329_s_at) / Fold change (Aza/veh), VPS36 (ProbeSet 11739960_a_at) / Fold change (ACY-1035/veh), VPS36 (ProbeSet 11739960_a_at) / RFU SYPL1 (11715823_x_at) / Fold change /veh SYPL1 (11715823_x_at) / RFU IGFBP7 (11715501_s_at) / Fold change /veh IGFBP7 (11715501_s_at) / RFU REEP3 (11722064_at) / Fold change /veh REEP3 (11722064_at) / RFU IGLL1 (11728026_x_at) / Fold change /veh IGLL1 (11728026_x_at): dose or concentration left out as unconfirmed
Settings: ProbeSet 11749477_a_at; LIST B

## Nc1ncn([C@@H]2O[C@H](CO)[C@@H](O)[C@H]2O)c(=O)n1 [azacitidine]
  RFU, EDEM3: 49.32 RFU
